# From patent US20160074553A1, “DRESSING FOR COMPROMISED WOUND HEALING” (CONSEJO SUPERIOR DE INVESTIGACIONES CIENTIFICAS (CSIC), priority 2012, published 2016)
# What was measured:
# [1] = Thermogravimetric analysis (TGA) of polymers and nanoparticle systems; assay type: physicochemical
# Procedure: The thermogravimetric analysis (TGA) was carried out under N2 atmosphere in TGA Q500 (TA) equipment between 25 and 600° C. with a heating rate of 10° C./min.
# The products were characterized by ATR-FTIR (4000 to 600 cm−1), TGA (25 to 600° C. under nitrogen atmosphere at 10° C./min) and DSC (the scan was carried out at a constant rate of 10° C./min, with a N2 flow of 20 ml/min, with temperatures in the range of −20 to 180° C.) to determine the glass transition temperature of the NP. For the calculation of the Tg, the temperature at which half of the difference in specific heat between the vitreous amorphous and elastomer amorphous states is reached is taken, that is, Tg=½ ΔCp. This point corresponds to the inflection point of the change in slope in the thermogram of the second scan.
# BaF32 cells = assay: BaF32 proliferation assay; assay type: cell-based
# Procedure: The measurements of biological activity of the free and encapsulated bemiparin were carried out by cell proliferation assay. For this, BaF32 cells were used, which are a type of lymphocyte B, the cell signalling of which is mediated by the formation of a complex between the bemiparin, the FGF-2 and its corresponding FGFR1c receptor on the cell surface.
# Bemiparin forms a ternary complex (FIG. 27) with the fibroblast growth factor (FGF-2) and its corresponding specific membrane receptor (FGFR1c) thus increasing the cellular signalling process corresponding to the proliferation process (Dillen, K., J. Vandervoort, G. Van den Mooter, and A. Ludwig. 2006. Evaluation of ciprofloxacin-loaded Eudragit® RS100 or RL100/PLGA nanoparticles. International Journal of Pharmaceutics 314 (1): 72-82; Eto, T. 2001. A review of the biological properties and clinical implications of adrenomedullin and proadrenomedullin N-terminal 20 peptide (PAMP), hypotensive and vasodilating peptides. Peptides 22 (11): 1693-1711). Given this property, an experiment was designed to verify that the encapsulated bemiparin maintains its biological activity. For this BaF32 cells were used, which are a type of lymphocyte B, the cell signalling of which is modulated by a by a specific bond between the FGF-2 and its corresponding FGFR1c receptor on the cell surface.
# [2] = donated by ROVI pharmaceutical laboratories; cited from earlier work
substance,measurement,setting,value
bemiparin,T10% (temperature at which 10% of the system has been degraded),[1],120 °C
same,effect on cell proliferation / activity of the FGF-2,"BaF32 cells; FGF-2, FGFR1c",promoting cell proliferation
same,dependence of the cellular response on the concentration of bemiparin,BaF32 cells; different concentrations of bemiparin,independent from the concentration of bemiparin used
same,activity of bemiparin as supplied,[2],111.3 IU/mg
